For one compound, GI50 results are on record in publication PMC8591201, “Anti-Tumor Activity of AZD4547 Against NTRK1 Fusion Positive Cancer Cells Through Inhibition of NTRKs” (Frontiers in Oncology, 2021).

Holding throughout (experiment): cells
What all share (design): Anti-proliferation, 10-point dose response, CellTiter-Glo luminescence (MTT stated for KM12(Luc)), GI50 fitted in Prism
(In general: In ATP-based viability assays light output follows the ATP content of the culture.)

The test system of one experiment is DU-145. Particulars: Homo sapiens, DU-145, 72 h, read-out: GI50 (µM) a.
A further experiment relates to MCF7. Particulars: Homo sapiens, MCF7, 72 h, read-out: GI50 (µM) a.
In a further experiment the test system is U-2-OS. To be noted: Homo sapiens, U2OS, 72 h, read-out: GI50 (µM) a.
The test system of a further experiment is U138. Particulars: KM12-Luc, 72 h, read-out: GI50 (µM) a.

Broadly, the GI50 is the concentration at which growth is held to half of that of the control. In the case of `COc1cc(CCc2cc(NC(=O)c3ccc(N4C[C@@H](C)N[C@@H](C)C4)cc3)n[nH]2)cc(OC)c1` [AZD4547], the 50% growth inhibitory concentration (GI50) was found to be 10.7 µM with DU-145, 7.84 µM in the experiment on MCF7, 0.43 µM with U-2-OS and 8.48 µM in the experiment with U138.
